Measured values as given in ChEMBL document CHEMBL1146905, “Synthesis and evaluation of phenoxy acetic acid derivatives as [corrected] anti-mycobacterial agents” (2006).
In brackets after ≈: the same amount, converted by molar mass.

Assays:
Assay type in all cases: functional
[1] = system: Mycobacterium tuberculosis; test: Antimycobacterial activity against Mycobacterium tuberculosis H37Rv by BACTEC-460 radiometric assay above 6.25 ug/ml
[2] = system: Mycobacterium tuberculosis; test: Antimycobacterial activity against Mycobacterium tuberculosis H37Rv by BACTEC-460 radiometric assay
[3] = system: Mycobacterium tuberculosis; test: Antimycobacterial activity against Mycobacterium tuberculosis H37Rv by BACTEC-460 radiometric assay at 6.25 ug/ml

Row | SMILES | Inhibition [1] [%] | MIC [2] [mg/L] | inhibition at 6.25 µg/mL [3] [%]
1 | COc1cc(C2=NN(C(=O)COc3cccc4ccccc34)C(Cc3ccccc3)C2)c(C)cc1OCC(=O)O (stereo not drawn) | 18 | > 6.25 | 
2 | COc1cc(C2=NN(C(=O)c3ccccc3)C(Cc3ccccc3)C2)c(C)cc1OCC(=O)O (stereo not drawn) | 12 | > 6.25 | 
3 | COc1cc(C2=NN(C(=O)c3ccc([N+](=O)[O-])cc3)C3CCCC23)c(C)cc1OCC(=O)O (stereo not drawn) | 26 | > 6.25 | 
4 | COc1cc(C2=NN(C(=O)c3ccccc3)C(c3ccc(O)cc3)C2)c(C)cc1OCC(=O)O (stereo not drawn) | 72 | > 6.25 | 
5 | COc1cc(C2=NN(C(=O)Cc3ccccc3)C(c3ccc(O)cc3)C2)c(C)cc1OCC(=O)O (stereo not drawn) | 28 | > 6.25 | 
6 | COc1cc(C2=NN(C(=O)COc3cccc4ccccc34)C3CCCC23)c(C)cc1OCC(=O)O (stereo not drawn) | 54 | > 6.25 | 
7 | COc1cc(C2=NN(C(=O)COc3cccc4ccccc34)C(c3ccc(O)cc3)C2)c(C)cc1OCC(=O)O (stereo not drawn) | 61 | > 6.25 | 
8 | COc1cc(C2=NN(C(=O)Cc3ccccc3)C(Cc3ccccc3)C2)c(C)cc1OCC(=O)O (stereo not drawn) | 34 | > 6.25 | 
9 | COc1cc(C2=NN(C(=O)c3ccccc3)C3CCCC23)c(C)cc1OCC(=O)O (stereo not drawn) | 24 | > 6.25 | 
10 | COc1cc(C2=NN(C(=O)c3ccc([N+](=O)[O-])cc3)C(c3ccc(O)cc3)C2)c(C)cc1OCC(=O)O (stereo not drawn) | 74 | 6.25 (≈ 12.4 µM) | 
11 | COc1cc(C2=NN(C(=O)COc3ccc4ccccc4c3)C3CCCC23)c(C)cc1OCC(=O)O (stereo not drawn) | 91 | 6.12 (≈ 12.5 µM) | 
12 | COc1cc(C2=NN(C(=O)Cc3ccccc3)C3CCCC23)c(C)cc1OCC(=O)O (stereo not drawn) | 21 | > 6.25 | 
13 | COc1cc(C2=NN(C(=O)COc3ccccc3)C(c3ccc(O)cc3)C2)c(C)cc1OCC(=O)O (stereo not drawn) |  | 0.1 (≈ 0.204 µM) | 99
14 | COc1cc(C2=NN(C(=O)c3ccc([N+](=O)[O-])cc3)C(Cc3ccccc3)C2)c(C)cc1OCC(=O)O (stereo not drawn) | 64 | > 6.25 | 
15 | NNC(=O)c1ccncc1 [ISONIAZID] |  | 0.1 (≈ 0.729 µM) | 96
16 | COc1cc(C2=NN(C(=O)COc3ccccc3)C(Cc3ccccc3)C2)c(C)cc1OCC(=O)O (stereo not drawn) |  | > 6.25 | 94
17 | COc1cc(C2=NN(C(=O)COc3ccccc3)C3CCCC23)c(C)cc1OCC(=O)O (stereo not drawn) | 87 | > 6.25 | 
18 | COc1cc(C2=NN(C(=O)COc3ccc4ccccc4c3)C(c3ccc(O)cc3)C2)c(C)cc1OCC(=O)O (stereo not drawn) |  | 0.1 (≈ 0.185 µM) | 99
19 | COc1cc(C2=NN(C(=O)COc3ccc4ccccc4c3)C(Cc3ccccc3)C2)c(C)cc1OCC(=O)O (stereo not drawn) |  | 0.22 (≈ 0.408 µM) | 95
